What was measured:
Format in all cases: cell-based
ERα [1] = target: T1, ERα (Homo sapiens, UniProt P03372); test: Degradation of ERα in T-47D cells (immunoblotting, 4 h); design: host or cells: T-47D
T1 sequence (P03372 1-595): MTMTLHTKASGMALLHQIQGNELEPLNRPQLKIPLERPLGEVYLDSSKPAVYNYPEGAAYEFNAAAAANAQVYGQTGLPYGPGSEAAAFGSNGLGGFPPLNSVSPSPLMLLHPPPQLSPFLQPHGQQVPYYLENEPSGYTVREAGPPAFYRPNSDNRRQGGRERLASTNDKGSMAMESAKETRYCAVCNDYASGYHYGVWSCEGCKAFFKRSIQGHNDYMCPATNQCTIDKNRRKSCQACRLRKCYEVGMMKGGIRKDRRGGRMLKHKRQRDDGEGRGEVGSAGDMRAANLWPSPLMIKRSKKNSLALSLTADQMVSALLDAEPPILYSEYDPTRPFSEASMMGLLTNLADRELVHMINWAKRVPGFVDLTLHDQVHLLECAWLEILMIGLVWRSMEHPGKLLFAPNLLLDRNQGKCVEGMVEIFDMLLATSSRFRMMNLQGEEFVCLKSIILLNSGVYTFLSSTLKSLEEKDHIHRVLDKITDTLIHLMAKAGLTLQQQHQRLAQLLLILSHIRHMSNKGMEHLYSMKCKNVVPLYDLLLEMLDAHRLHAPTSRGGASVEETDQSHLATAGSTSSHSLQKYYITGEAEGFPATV
How it was run: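 T-47D cells were treated with compound (final 0.15-1000 nM, DMSO) for 4 h at 37°C, 5% CO2. Cells were lysed in RIPA buffer with protease inhibitor, and ERα protein in the cleared lysate was measured by immunoblotting.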

T-47D cells = test: Inhibition of cell proliferation in T-47D cells (CCK-8, 6 days); settings: 6 days of treatment
How it was run: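 T-47D cells at 3,000 cells/well in RPMI 1640 with 10% FBS were exposed to a concentration series of PROTAC compounds for 6 days at 37 °C, 5% CO2. Viability was read by CCK-8, and IC50 values were derived for proliferation inhibition.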

ERα [2] = target: T1, ERα; test: Degradation of ERα in MCF-7 cells (immunoblotting, 4 h)
How it was run: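 MCF-7 cells treated 4 h at 37°C with compounds at 0.15-1000nM final. ERα in lysates measured by immunoblot, with band grayscale normalized to an internal reference protein. Degradation rate calculated against DMSO-treated control.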

MCF-7 cells = test: Inhibition of cell proliferation of MCF-7 cells (CCK-8, 9 days)
How it was run: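 MCF-7 cells seeded at 800 cells/well in DMEM with 10% FBS, exposed to a range of compound concentrations for 9 days at 37°C, 5% CO2. Viability read by CCK-8; IC50 derived for proliferation inhibition.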

[3] = treated for 9 days, CCK-8 kit (Table 6)

Row | Degradation rate (%) of ERα in T-47D cells (ERα [1]; 1nM compound) [%] | Degradation rate (%) of ERα in T-47D cells (ERα [1]; 10nM compound) [%] | IC50 (T-47D cells; Table 3) [µM] | Degradation rate (%) of ERα in MCF-7 cells (ERα [2]; 1nM compound) [%] | Degradation rate (%) of ERα in MCF-7 cells (ERα [2]; 10nM compound) [%] | IC50 (MCF-7 cells; [3]) [µM] | IC50 (T-47D cells; Table 2) [µM] | IC50 (MCF-7 cells; 9 days of treatment, CCK-8, Table 5) [µM] | SMILES
1 | 40 | 78 | 0.00201 | 15 | 63 | 0.0594 | – | – | C[C@@H]1Cc2c([nH]c3ccccc23)[C@@H](c2c(F)cc(N3CCC4(CCN(CC(=O)N5CCC6(CC5)COc5c6ccc6c5CN(C5CCC(=O)NC5=O)C6=O)CC4)CC3)cc2F)N1CC(F)F (stereo partly drawn) [A112]
2 | -34 | -38 | 0.055 | -40 | -16 | 4.61 | – | – | O=C1CCC(N2C(=O)c3cc4c(cc3C2=O)OC2(CC4)CN(CC3CC4(CCN(c5ccc([C@@H]6c7ccc(O)cc7CC[C@@H]6c6ccccc6)cc5)CC4)C3)C2)C(=O)N1 (stereo partly drawn) [B11]
3 | 25 | 54 | 0.005 | 23 | 44 | 0.13 | – | – | O=C1CCC(N2Cc3ccc4c(c3C2=O)OCC2(CCN(C3CCC5(CC3)CCN(c3ccc([C@@H]6c7ccc(O)cc7CC[C@@H]6c6ccccc6)cc3)CC5)CC2)C4)C(=O)N1 (stereo partly drawn) [L3]
4 | 32 | 21 | 0.0135 | 27 | 27 | 0.99 | – | – | O=C1CCC(N2C(=O)c3ccc4c(c3C2=O)OC2(CC4)CCN(C3CCC4(CC3)CN(c3ccc([C@@H]5c6ccc(O)cc6CC[C@@H]5c5ccccc5)cc3)C4)CC2)C(=O)N1 (stereo partly drawn) [L8]
5 | 14 | 29 | 0.0179 | -11 | -6 | 0.925 | – | – | O=C1CCC(N2Cc3ccc4c(c3C2=O)CC2(CCN(C3CCC5(CC3)CN(c3ccc([C@@H]6c7ccc(O)cc7CC[C@@H]6c6ccccc6)cc3)C5)CC2)CO4)C(=O)N1 (stereo partly drawn) [L10]
6 | 67 | 85 | 0.00207 | 44 | 64 | 0.0105 | – | – | O=C1CCC(N2Cc3c(ccc4c3OCC43CCN(C(=O)CN4CC5(CCN(c6ccc([C@@H]7c8ccc(O)cc8CC[C@@H]7c7ccccc7)cc6)CC5)C4)CC3)C2=O)C(=O)N1 (stereo partly drawn) [K8]
7 | 26 | 64 | 0.00461 | 4 | 52 | 0.0216 | – | – | CCOC(=O)[C@H]1CC(N2CCC3(CC2)COc2c3ccc3c2CN(C2CCC(=O)NC2=O)C3=O)CCN1C1CC2(CCN(c3ccc([C@@H]4c5ccc(O)cc5CC[C@@H]4c4ccccc4)cc3)CC2)C1 (stereo partly drawn) [A113]
8 | 12 | 56 | – | -7 | 26 | – | 0.0092 | 0.03 | O=C1CCC(N2Cc3cc4c(cc3C2=O)CCC2(CN(C3CCC5(CC3)CCN(c3ccc([C@@H]6c7ccc(O)cc7CC[C@@H]6c6ccccc6)cc3)CC5)C2)O4)C(=O)N1 (stereo partly drawn) [A33]
9 | 54 | 85 | 0.00117 | 38 | 75 | 0.067 | – | – | O=C1CCC(N2Cc3c(ccc4c3OCC43CCN(C4CCN(C(=O)C5CCN(c6ccc([C@@H]7c8ccc(O)cc8CC[C@@H]7c7ccccc7)cc6)CC5)[C@@H](C(=O)N5CC(F)(F)C5)C4)CC3)C2=O)C(=O)N1 (stereo partly drawn) [C4]
10 | 56 | 68 | 0.00066 | 60 | 69 | 5.97 | – | – | C[C@@H]1Cc2c(ccc3[nH]ncc23)[C@@H](c2c(F)cc(N3CCC4(CCN(CC(=O)N5CCC6(CC5)COc5c6ccc6c5CN(C5CCC(=O)NC5=O)C6=O)C4)CC3)cc2F)N1CC(F)F (stereo partly drawn) [C11]

— patent publication EP4656642A1, “ESTROGEN RECEPTOR PROTEOLYSIS TARGETING CHIMERA COMPOUND AND USE THEREOF” (GAN & LEE PHARM CO., LTD, priority 2023, dated 2024)
